This note sets out measurements from patent publication US20260258032A1, “TYROSINE KINASE 2 INHIBITORS AND USES THEREOF” (BIOGEN MA INC., priority 2022, published 2026).

Assay [1] deals with Tyk2 kinase activity on STAT4. The experiment in a line: pSTAT4 cell assay (MSD, NK92 cells). In kind it is cell-based. The settings on record: compounds 1 hr, stimulated 15 minutes. As to the method: The inhibitory potency of compounds of the disclosure against the Tyk2 kinase activity on STAT4 was evaluated using an MSD-platform plate-based assay format. NK92 cells natively expressing STAT4 and Tyk2 were serum-starved to reduce background phosphorylation levels, then cells were treated compounds for 1 hr with a 10-point four-fold dilution series starting at 10 μM. Cells were then stimulated with 30 ng/mL IL2 for 15 minutes. Cells were lysed and […] levels were quantitated using an MSD plate-based assay with anti-STAT4 antibodies. The data were normalized and the percent activity versus log concentration of compound were fitted with a 4-parameter logistic model to generate to generate IC50 curves.

In assay [2] the target is T1, JH2 domain of human Tyk2 (Homo sapiens, UniProt P29597).
T1 construct: 10×His-tagged TYK2 JH2 domain (amino acid 575-876)
The assay can be described thus: JH2 biochemical assay (TR-FRET probe displacement). In kind it is binding. Here is the method: The inhibitory potency of compounds of the disclosure against the kinase activity of recombinantly generated JH2 domain of human Tyk2 was evaluated in a plate-based assay using a TR-FRET assay platform. Briefly, 2 nM of recombinant JH2 domain [10×His-tagged TYK2 JH2 domain (amino acid 575-876)] was combined with 2 nM probe ((S)-6-amino-9-(2-carboxy-4-((1-(3-(8-methyl-5-(methylamino)-8H-imidazo[4,5-d]thiazolo[5,4-b]pyridin-2-yl)phenyl)ethyl)carbamoyl)phenyl)-3-iminio-5-sulfo-3H-xanthene-4-sulfonate), 0.1 nM Tb-labeled anti-His antibody, and compounds of disclosure for 60 minutes. Compounds are tested at either […] top concentration, 10 points of 3-fold dilution. The TR-FRET signal […] by compounds and signal was calculated by taking the ratio of fluorescence at 520 nm and 495 nm. The data was normalized and the percent activity versus log concentration of compound was fitted with a 4-parameter logistic model to generate IC50 curves.
In general terms: Time-resolved FRET reads energy transfer from a long-lived donor to a nearby acceptor.

The mark [3] stands for this setting: TR-FRET probe displacement, JH2 domain of human Tyk2.

Structures are written as SMILES. Structures can show the parent of a compound that is named as a salt. Where only a bound is given, the exact number is not on record here.

T1 sequence (P29597 575-876): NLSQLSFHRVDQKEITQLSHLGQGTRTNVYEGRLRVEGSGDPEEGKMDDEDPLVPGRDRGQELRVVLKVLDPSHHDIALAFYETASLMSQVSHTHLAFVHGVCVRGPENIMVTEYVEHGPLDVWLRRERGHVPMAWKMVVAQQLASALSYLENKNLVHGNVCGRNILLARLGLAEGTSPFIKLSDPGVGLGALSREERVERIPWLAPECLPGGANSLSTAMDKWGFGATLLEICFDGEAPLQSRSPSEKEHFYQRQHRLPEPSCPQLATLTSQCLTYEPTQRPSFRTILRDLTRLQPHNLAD

In general, IC50 refers to the concentration needed to halve the response being measured. A high value points to a need for much substance. `CO[C@H]1C[C@H](Oc2cc(N3CC4(CC4)c4cnc(NC(C)=O)cc43)nc(C(C)(F)F)c2)C1` [Example 92, N-(1′-(6-(1,1-difluoroethyl)-4-((1r,3r)-3-methoxycyclobutoxy)pyridin-2-yl)-1′,2′-dihydrospiro[cyclopropane-1,3′-pyrrolo[3,2-c]pyridin]-6′-yl)acetamide] returned an IC50 in assay [1] of 10 to 100 nM. For the compound `COC1(c2cc(C)cc(N3CC4(CC4)c4cnc(NC(C)=O)cc43)n2)CCOC1` (stereo not shown) [Example 96, N-(1′-(6-(3-methoxytetrahydrofuran-3-yl)-4-methylpyridin-2-yl)-1′,2′-dihydrospiro[cyclopropane-1,3′-pyrrolo[3,2-c]pyridin]-6′-yl)acetamide], the IC50 in assay [1] lay in the range of 10 to 100 nM. The same measure, in the same setting: the value for `CC(=O)Nc1cc2c(cn1)C1(CC1)CN2c1cc(C)nc(-c2ccccc2)n1` [Example 105, N-(1′-(6-methyl-2-phenylpyrimidin-4-yl)-1′,2′-dihydrospiro[cyclopropane-1,3′-pyrrolo[3,2-c]pyridin]-6′-yl)acetamide] was not below 1000 nM; that for `CC(=O)Nc1cc2c(cn1)C1(CC1)CN2c1cc(C)nc(-c2cccnc2)n1` [Example 106, N-(1′-(6-methyl-2-(pyridin-3-yl)pyrimidin-4-yl)-1′,2′-dihydrospiro[cyclopropane-1,3′-pyrrolo[3,2-c]pyridin]-6′-yl)acetamide] was not below 1000 nM; that for `CC(=O)Nc1cc2c(cn1)C1(CC1)CN2c1cc(C)nc(-c2ccncc2)n1` [Example 107, N-(1′-(6-methyl-2-(pyridin-4-yl)pyrimidin-4-yl)-1′,2′-dihydrospiro[cyclopropane-1,3′-pyrrolo[3,2-c]pyridin]-6′-yl)acetamide] was not below 1000 nM. Regarding `CC(=O)Nc1cc2c(cn1)C1(CC1)CN2c1cc(C)nc(-c2ncccn2)n1` [Example 108, N-(1′-(6-methyl-[2,2′-bipyrimidin]-4-yl)-1′,2′-dihydrospiro[cyclopropane-1,3′-pyrrolo[3,2-c]pyridin]-6′-yl)acetamide], the IC50 in assay [1] is not below 1000 nM. `CC(=O)Nc1cc2c(cn1)C1(CC1)CN2c1cc(C)nc(-c2coc(C)n2)n1` [Example 109, N-(1′-(6-methyl-2-(2-methyloxazol-4-yl)pyrimidin-4-yl)-1′,2′-dihydrospiro[cyclopropane-1,3′-pyrrolo[3,2-c]pyridin]-6′-yl)acetamide] yielded a half-inhibitory concentration (IC50) in assay [1] of 100 to 1000 nM.

In assay [1], `CC(=O)Nc1cc2c(cn1)C1(CC1)CN2c1cc(C)nc(-n2nc(C)cc2C)n1` [Example 110, N-(1′-(2-(3,5-dimethyl-1H-pyrazol-1-yl)-6-methylpyrimidin-4-yl)-1′,2′-dihydrospiro[cyclopropane-1,3′-pyrrolo[3,2-c]pyridin]-6′-yl)acetamide] showed an IC50 not below 1000 nM.

For `CC(=O)Nc1cc2c(cn1)C1(CC1)CN2c1cc(C)nc(-c2cccc(F)c2)n1` [Example 111, N-(1′-(2-(3-fluorophenyl)-6-methylpyrimidin-4-yl)-1′,2′-dihydrospiro[cyclopropane-1,3′-pyrrolo[3,2-c]pyridin]-6′-yl)acetamide], the 50% inhibitory concentration (IC50) in assay [1] was not below 1000 nM. As to `CC(=O)Nc1cc2c(cn1)C1(CC1)CN2c1cc(C)nc(-c2ccccn2)n1` [Example 112, N-(1′-(6-methyl-2-(pyridin-2-yl)pyrimidin-4-yl)-1′,2′-dihydrospiro[cyclopropane-1,3′-pyrrolo[3,2-c]pyridin]-6′-yl)acetamide], the IC50 in assay [1] is not below 1000 nM. The same measure, in the same setting: the value for `CC(=O)Nc1cc2c(cn1)C1(CC1)CN2c1cc(C)nc(N(C)C(C)C)n1` [Example 115, N-(1′-(2-(isopropyl(methyl)amino)-6-methylpyrimidin-4-yl)-1′,2′-dihydrospiro[cyclopropane-1,3′-pyrrolo[3,2-c]pyridin]-6′-yl)acetamide] was not below 1000 nM. In the case of `CC(=O)Nc1cc2c(cn1)C1(CC1)CN2c1cc(C)nc(C2CC2(C)C)n1` (stereo not shown) [Example 124, N-(1′-(2-(2,2-dimethylcyclopropyl)-6-methylpyrimidin-4-yl)-1′,2′-dihydrospiro[cyclopropane-1,3′-pyrrolo[3,2-c]pyridin]-6′-yl)acetamide], the IC50 in assay [1] fell in the range of 10 to 100 nM.

For the compound `CC(=O)Nc1cc2c(cn1)C1(CC1)CN2c1cc(C)cc(-c2cn(C)nc2C(F)(F)F)n1` [Example 261, N-(1′-(4-methyl-6-(1-methyl-3-(trifluoromethyl)-1H-pyrazol-4-yl)pyridin-2-yl)-1′,2′-dihydrospiro[cyclopropane-1,3′-pyrrolo[3,2-c]pyridin]-6′-yl)acetamide trifluoroacetate], the IC50 in assay [2] (JH2 biochemical assay) is not below 1000 nM. The compound `CC(=O)Nc1cc2c(cn1)C1(CC1)CN2c1cc(C)cc(-c2cnn(C)c2C(F)F)n1` [Example 262, N-(1′-(6-(5-(difluoromethyl)-1-methyl-1H-pyrazol-4-yl)-4-methylpyridin-2-yl)-1′,2′-dihydrospiro[cyclopropane-1,3′-pyrrolo[3,2-c]pyridin]-6′-yl)acetamide trifluoroacetate] yielded an IC50 in assay [2] (JH2 biochemical assay) of 10 to 100 nM.

The compound `CC(=O)Nc1cc2c(cn1)C1(CC1)CN2c1cc(C)cc(-c2cnn(C3COC3)c2)n1` [Example 265, N-(1′-(4-methyl-6-(1-(oxetan-3-yl)-1H-pyrazol-4-yl)pyridin-2-yl)-1′,2′-dihydrospiro[cyclopropane-1,3′-pyrrolo[3,2-c]pyridin]-6′-yl)acetamide trifluoroacetate] showed an IC50 in assay [2] (JH2 biochemical assay) of 10 to 100 nM. Turning to `CC(=O)Nc1cc2c(cn1)C1(CC1)CN2c1cc(C)cc(-c2cnn(CC3CC3)c2)n1` [Example 266, N-(1′-(6-(1-(cyclopropylmethyl)-1H-pyrazol-4-yl)-4-methylpyridin-2-yl)-1′,2′-dihydrospiro[cyclopropane-1,3′-pyrrolo[3,2-c]pyridin]-6′-yl)acetamide trifluoroacetate], the IC50 in assay [2] (JH2 biochemical assay) is 10 to 100 nM. In assay [2] (JH2 biochemical assay), `COc1ccc(-c2cc(C)cc(N3CC4(CC4)c4cnc(NC(C)=O)cc43)n2)cn1` [Example 267, N-(1′-(6′-methoxy-4-methyl-[2,3′-bipyridin]-6-yl)-1′,2′-dihydrospiro[cyclopropane-1,3′-pyrrolo[3,2-c]pyridin]-6′-yl)acetamide trifluoroacetate] gave an IC50 of 100 to 1000 nM. Take `CC(=O)Nc1cc2c(cn1)C1(CC1)CN2c1cc(C)cc(-c2cnn(C3CNC3)c2)n1` [Example 268, N-(1′-(6-(1-(azetidin-3-yl)-1H-pyrazol-4-yl)-4-methylpyridin-2-yl)-1′,2′-dihydrospiro[cyclopropane-1,3′-pyrrolo[3,2-c]pyridin]-6′-yl)acetamide trifluoroacetate]: the half-inhibitory concentration (IC50) in assay [2] (JH2 biochemical assay) lay within 100 to 1000 nM.

Turning to `CC(=O)Nc1cc2c(cn1)C1(CC1)CN2c1cc(C)nc(-c2cnn(C3CNC3)c2)n1` [Example 269, N-(1′-(2-(1-(azetidin-3-yl)-1H-pyrazol-4-yl)-6-methylpyrimidin-4-yl)-1′,2′-dihydrospiro[cyclopropane-1,3′-pyrrolo[3,2-c]pyridin]-6′-yl)acetamide trifluoroacetate], in assay [2] (JH2 biochemical assay), the 50% inhibitory concentration (IC50) fell in the range of 100 to 1000 nM.

The compound `CC(=O)Nc1cc2c(cn1)C1(CCNCC1)CN2c1nccc(C(C)(F)F)n1` [Example 270, N-(1′-(4-(1,1-difluoroethyl)pyrimidin-2-yl)-1′,2′-dihydrospiro[piperidine-4,3′-pyrrolo[3,2-c]pyridin]-6′-yl)acetamide] gave a half-maximal inhibitory concentration (IC50) in assay [2] (JH2 biochemical assay) not below 1000 nM.

On to `CC(=O)Nc1cc2c(cn1)C1(CCNCC1)CN2c1ccnc(C(C)(F)F)n1` [Example 271, N-(1′-(2-(1,1-difluoroethyl)pyrimidin-4-yl)-1′,2′-dihydrospiro[piperidine-4,3′-pyrrolo[3,2-c]pyridin]-6′-yl)acetamide], for which, in assay [2] (JH2 biochemical assay), the IC50 was not below 1000 nM. `CC(=O)Nc1cc2c(cn1)C1(CCNCC1)CN2c1cccc(C(C)(F)F)n1` [Example 272, N-(1′-(6-(1,1-difluoroethyl)pyridin-2-yl)-1′,2′-dihydrospiro[piperidine-4,3′-pyrrolo[3,2-c]pyridin]-6′-yl)acetamide] gave an IC50 in assay [2] (JH2 biochemical assay) not below 1000 nM. With `CC(=O)Nc1cc2c(cn1)C1(CC1)CN2c1cc(C)nc(OCC(F)(F)F)n1` [Example 361, N-(1′-(6-methyl-2-(2,2,2-trifluoroethoxy)pyrimidin-4-yl)-1′,2′-dihydrospiro[cyclopropane-1,3′-pyrrolo[3,2-c]pyridin]-6′-yl)acetamide trifluoroacetate], the half-inhibitory concentration (IC50) in assay [2] (JH2 biochemical assay) is 10 to 100 nM. For `CC(=O)Nc1cc2c(cn1)C1(CC1)CN2c1cc(C)nc(OCC2CCO2)n1` (stereo not shown) [Example 380, N-(1′-(6-methyl-2-(oxetan-2-ylmethoxy)pyrimidin-4-yl)-1′,2′-dihydrospiro[cyclopropane-1,3′-pyrrolo[3,2-c]pyridin]-6′-yl)acetamide trifluoroacetate], the IC50 in assay [2] (setting [3]) is 10 to 100 nM. Turning to `CC(=O)Nc1cc2c(cn1)C1(CC1)CN2c1cc(-c2cnn(CC#N)c2)nc(C(C)(F)F)n1` [Example 393, N-(1′-(6-(1-(cyanomethyl)-1H-pyrazol-4-yl)-2-(1,1-difluoroethyl)pyrimidin-4-yl)-1′,2′-dihydrospiro[cyclopropane-1,3′-pyrrolo[3,2-c]pyridin]-6′-yl)acetamide], the half-inhibitory concentration (IC50) in assay [2] (setting [3]) was not above 10 nM.
